# Data as given in patent publication US8450308B2 (Vitae Pharmaceuticals, Inc., priority 2008, dated 2013).
# Experiment: BACE cell assay: soluble Amyloid Beta 1-40 (Aβ 1-40) in culture media of H4-APPsw cells
# Type: cell-based
# Settings: not given
# Protocol: H4 neuroglioma cell line that stably expresses Amyloid Precursor Protein (APP) containing the KM-NL Swedish mutation (H4-APPsw) was generated. For the assay, cells are treated overnight in the presence of inhibitor and the culture media are subjected to ELISA analysis of soluble Amyloid Beta 1-40 (Aβ 1-40).
# H4 neuroglioma cell line was cultured in DMEM with 10% FBS and 1% penicillin/streptomycin (Culture Medium) at 37° C., 5% CO2. […] 24 hrs after transfection, the cells were replaced into three new plates (150 mm) in fresh Culture Medium with 250 ug/ml Zeocin. […] The levels of APPsw expression were analyzed by immunoblotting and the production of Aβ 1-40 was detected by ELISA of culture supernatants. The selected clones are maintained in Culture Medium with 250 μg/ml Zeocin and routinely split in 3-4 days to maintain 20-80% confluence.
# Split cells. Split H4-APPsw cells in Culture Medium and culture overnight such that cells will be ˜80% confluent next morning.
# Create Compound Dilution Plate. After determining the desired final concentration of compound to be tested, create a 500× dilution plate. Add DMSO, but not inhibitor, to each well of Column 1. […] Add compounds of interest at 500× desired final concentration to wells A3-A10. Add DMSO, but not inhibitor, to each well of Columns 11 and 12. Dilute contents of Row A 1:3 in Row B. then continue through Rows C—H.
# Create Media Plate. To create a 2× solution of compound in media, add 996 μL Culture Medium to each well of a 96-well 2 ml deep well plate (Media Plate) in biosafety hood. Add 4 μL 5 mM control compound to Media Plate wells A1-D1 for determination of full inhibition.
# Add media to Cell Plate. With a multichannel pipettor, mix each well of Media Plate several times to insure homogeneity. Add 100 μL of mixture to Black polymer bottom P-D-L plates. Next, place Medium Plate and Cell Plate in the incubator.
# Add cells to Cell Plate. Trypsinize and count H4-APPsw cells. Dilute cells 6×10^5 cells/ml in Culture Medium and remove Cell Plate from incubator. Vortex cells to homogeneity, then using a multichannel repeating pipettor, add 100 μL cell suspension to Cell Plate, adding cells from Row H to Row A. Place Cell Plate in incubator.
# Change media in Cell Plate. After 5 h, check Cell Plate by microscope to insure cells are attached. In culture hood, remove media from Cell Plate using multichannel repeating pipettor. Add 100 μl Culture Medium to each well. Remove Media Plate from incubator and mix with pipettor as previous. Add 100 μl from each well of Media Plate to corresponding well in Cell Plate. Place Cell Plate in incubator overnight.
# Perform ELISA to determine levels of secreted Aβ 1-40. After 16 h incubation, spin Cell Plate for 8 min at 1200 rpm. The primary reading of Aβ 1-40 levels is done using PerkinElmer AlphaLISA technology. Follow the manufacturer's protocol for performing AlphaLISA in a white ½ area Optiwell plate using Row 12 for peptide standard (1:2 dilutions, starting at 15 ng/ml). Data are acquired using PerkinElmer Fusion-Alpha FP-HT, Alpha protocol (Count Time 0.6 s, Count Time Ratio 30%:70%).
# Export data from Fusion using Columnar Report format into a separate file for each plate. Upload data into Activity Base using RIA-DOSE-RESPONSE protocol (Version 1). Data from at least eight doses were fitted to a four parameter logistical model using XLfit software to determine potency.
row,Compound,IC50 [nM]
1,CN1OC2(CC3(CCCc4ccccc4C3)Oc3ccc(-c4cccc(C#N)c4)cc32)N=C1N (stereo not shown) [Compound 217],100 to 500

# Same assay, conditions: in vitro cell activity, H4-APPsw cells, secreted Aβ 1-40, overnight treatment; read-out: IC50
row,IC50 [nM],Compound
1,1 to 100,CN1C(=O)C2(CC(C3CCOC(C)(C)C3)Oc3ccc(-c4cc(C#N)cc(C#N)c4)cc32)N=C1N (stereo not shown) [Compound 185]
2,500 to 1000,CN1OC2(CC3(CCCc4ccccc4C3)Oc3ccc(-c4cc(F)cc(C#N)c4)cc32)N=C1N (stereo not shown) [Compound 186]
3,1 to 100,CN1C(=O)[C@@]2(C[C@@H](C3CCOC(C)(C)C3)Oc3ccc(-c4ccc(F)c(Cl)c4)cc32)N=C1N (stereo partly shown) [Compound 187]
4,500 to 1000,CN1OC2(CC3(CCCc4ccccc4C3)Oc3ccc(-c4cccc(Cl)c4)cc32)N=C1N (stereo not shown) [Compound 189]
5,1 to 100,CN1C(=O)C2(C[C@H](C3CCOC(C)(C)C3)Oc3ccc(-c4cc(F)cc(Cl)c4)cc32)N=C1N (stereo partly shown) [Compound 190]
6,100 to 500,CN1OC2(CC3(CCCc4ccccc4C3)Oc3ccc(-c4cc(Cl)cc(C#N)c4)cc32)N=C1N (stereo not shown) [Compound 191]
7,500 to 1000,CN1OC2(CC3(CCCc4ccccc4C3)Oc3ccc(-c4ccc(F)c(Cl)c4)cc32)N=C1N (stereo not shown) [Compound 192]
8,1 to 100,COc1cc(Cl)cc(-c2ccc3c(c2)C2(CC(C4CCOC(C)(C)C4)O3)N=C(N)N(C)C2=O)c1 (stereo not shown) [Compound 193]
9,1 to 100,CN1C(=O)C2(CC(C3CCOC(C)(C)C3)Oc3ccc(-c4cc(F)cc(C#N)c4)cc32)N=C1N (stereo not shown) [Compound 194]
10,1 to 100,CN1C(=O)C2(CC(C3CCOC(C)(C)C3)Oc3ccc(-c4cc(F)cc(C(F)(F)F)c4)cc32)N=C1N (stereo not shown) [Compound 195]
11,1 to 100,CN1C(=O)C2(CC(C3CCOC(C)(C)C3)Oc3ccc(-c4cc(Cl)cc(Cl)c4)cc32)N=C1N (stereo not shown) [Compound 196]
12,1 to 100,CN1C(=O)C2(CC(C3CCOC(C)(C)C3)Oc3ccc(-c4cccc(Cl)c4)cc32)N=C1N (stereo not shown) [Compound 197]
13,1000 to 5000,CN1OC2(CC(C3CCCc4ccccc43)Oc3ccc(-c4cc(F)cc(C#N)c4)cc32)N=C1N (stereo not shown) [Compound 198]
14,100 to 500,CN1OC2(CC3(CCCc4ccccc4C3)Oc3ccc(-c4ccc(F)c(C#N)c4)cc32)N=C1N (stereo not shown) [Compound 199]
15,1 to 100,CN1C(=O)C2(CC(C3CCOC(C)(C)C3)Oc3ccc(-c4cccc(C(F)(F)F)c4)cc32)N=C1N (stereo not shown) [Compound 200]
16,1000 to 5000,CN1O[C@@]2(C[C@@H](C3CCCc4ccccc43)Oc3ccc(-c4ccc(F)c(C#N)c4)cc32)N=C1N (stereo partly shown) [Compound 201]
17,1 to 100,CN1C(=O)[C@@]2(C[C@]3(CCCOC3)Oc3ccc(-c4cc(Cl)cc(Cl)c4)cc32)N=C1N [Compound 202]
18,1 to 100,CN1C(=O)[C@@]2(C[C@]3(CCCOC3)Oc3ccc(-c4cc(Cl)cc(C#N)c4)cc32)N=C1N [Compound 203]
19,1000 to 5000,CN1OC2(CC(C3COCc4ccccc43)Oc3ccc(-c4cccc(C#N)c4)cc32)N=C1N (stereo not shown) [Compound 204]
20,100 to 500,CN1O[C@@]2(C[C@]3(CCCc4ccccc4C3)Oc3ccc(-c4cccc(C#N)c4)cc32)N=C1N [Compound 205]
21,100 to 500,CN1C(=O)C2(CC(C34CCC(CC3)OC4)Oc3ccc(-c4cccc(C#N)c4)cc32)N=C1N (stereo not shown) [Compound 206]
22,100 to 500,CN1O[C@@]2(C[C@@H]([C@H]3CCOC(C)(C)C3)Oc3ccc(-c4cccc(C#N)c4)cc32)N=C1N [Compound 207]
23,1000 to 5000,CN1OC2(CC(C3CCCc4ccccc43)Oc3ccc(-c4cc(Cl)cc(C#N)c4)cc32)N=C1N (stereo not shown) [Compound 208]
24,1000 to 5000,CN1O[C@@]2(C[C@@]3(CCCc4ccccc4C3)Oc3ccc(-c4cccc(C#N)c4)cc32)N=C1N [Compound 209]
25,100 to 500,CN1O[C@]2(C[C@H]([C@@H]3CCOC(C)(C)C3)Oc3ccc(-c4cccc(C#N)c4)cc32)N=C1N [Compound 211]
26,1 to 100,CN1C(=O)C2(CC(C3CCOC(C)(C)C3)Oc3ccc(-c4cccc(C#N)c4F)cc32)N=C1N (stereo not shown) [Compound 212]
27,1 to 100,CN1C(=O)C2(CC(C3CCOC(C)(C)C3)Oc3ccc(-c4cc(C#N)cc(C(F)(F)F)c4)cc32)N=C1N (stereo not shown) [Compound 213]

row,IC50 [nM],Compound
1,1 to 100,COc1cc(Cl)cc(-c2ccc3c(c2)[C@]2(C[C@]4(CCCOC4)O3)N=C(N)N(C)C2=O)c1 [Compound 214]
2,100 to 500,CN1C(=O)[C@@]2(C[C@]3(CCCOC3)Oc3ccc(-c4cc(F)cc(Cl)c4)cc32)N=C1N [Compound 215]
3,1 to 100,CN1C(=O)[C@@]2(C[C@]3(CCCOC3)Oc3ccc(-c4cc(C#N)cc(C(F)(F)F)c4)cc32)N=C1N [Compound 216]
4,1 to 100,CN1C(=O)C2(CC(C3CCOC(C)(C)C3)Oc3ccc(-c4cc(C#N)ccc4F)cc32)N=C1N (stereo not shown) [Compound 218]
5,100 to 500,CN1O[C@]2(C[C@]3(CCCc4ccccc4C3)Oc3ccc(-c4cccc(C#N)c4)cc32)N=C1N [Compound 220]
6,1000 to 5000,CN1O[C@@]2(C[C@H](C3CCCc4ccccc43)Oc3ccc(-c4ccc(F)c(C#N)c4)cc32)N=C1N (stereo partly shown) [Compound 221]
7,1 to 100,Cc1ccc(C#N)cc1-c1ccc2c(c1)[C@]1(C[C@H](C3CCOC(C)(C)C3)O2)N=C(N)N(C)C1=O (stereo partly shown) [Compound 222]
8,1 to 100,COc1cc(C#N)cc(-c2ccc3c(c2)C2(CC4(CCCOC4)O3)N=C(N)N(C)C2=O)c1 (stereo not shown) [Compound 223]
9,100 to 500,CN1C(=O)[C@@]2(C[C@]3(CCCOC3)Oc3ccc(-c4cccc(Cl)c4)cc32)N=C1N [Compound 224]
10,500 to 1000,COc1cccc2c1CCCC1(C2)CC2(N=C(N)N(C)O2)c2cc(-c3cccc(C#N)c3)ccc2O1 (stereo not shown) [Compound 225]
11,1000 to 5000,CN1OC2(CC(C3CCc4ccccc43)Oc3ccc(-c4cccc(C#N)c4)cc32)N=C1N (stereo not shown) [Compound 226]
12,1000 to 5000,CN1OC2(CC3(CCCc4ccccc4C3)Oc3ccc(-c4cc(F)cc(Cl)c4)cc32)N=C1N (stereo not shown) [Compound 227]
13,500 to 1000,CN1O[C@]2(C[C@@]3(CCCc4ccccc4C3)Oc3ccc(-c4cccc(C#N)c4)cc32)N=C1N [Compound 228]
14,100 to 500,CN1C(=O)C2(CC(C3CCOC(C)(C)C3)Oc3ccc(-c4cc(F)cc(F)c4F)cc32)N=C1N (stereo not shown) [Compound 229]
15,1 to 100,CN1C(=O)C2(C[C@H]([C@H]3CCOC(C)(C)C3)Oc3ccc(-c4cccc(C#N)c4)cc32)N=C1N (stereo partly shown) [Compound 230]
16,100 to 500,CN1C(=O)C2(C[C@H](C3CCOC(C)(C)C3)Oc3ccc(-c4cc(F)cc(F)c4)cc32)N=C1N (stereo partly shown) [Compound 231]
17,500 to 1000,CC1CC[C@@]2(CO1)C[C@]1(N=C(N)N(C)O1)c1cc(-c3cc(F)cc(Cl)c3)ccc1O2 (stereo partly shown) [Compound 232]
18,100 to 500,CN1C(=O)[C@@]2(C[C@]3(CCCOC3)Oc3ccc(-c4ccc(F)c(Cl)c4)cc32)N=C1N [Compound 233]
19,1000 to 5000,COc1cc(Cl)cc(-c2ccc3c(c2)C2(CC4(CCCc5ccccc5C4)O3)N=C(N)N(C)O2)c1 (stereo not shown) [Compound 234]
20,1000 to 5000,CN1O[C@@]2(C[C@@H](C3CCCc4ccccc43)Oc3ccc(-c4ccc(F)c(Cl)c4)cc32)N=C1N (stereo partly shown) [Compound 235]
21,500 to 1000,CC1CC[C@@]2(CO1)C[C@]1(N=C(N)N(C)O1)c1cc(-c3cccc(Cl)c3)ccc1O2 (stereo partly shown) [Compound 236]
22,500 to 1000,CN1O[C@@]2(C[C@H]([C@@H]3CCOC(C)(C)C3)Oc3ccc(-c4cccc(C#N)c4)cc32)N=C1N [Compound 237]
23,1000 to 5000,CN1OC2(CC3(CCCc4ccccc4C3)Oc3ccc(C#CC4CC4)cc32)N=C1N (stereo not shown) [Compound 238]
24,1000 to 5000,CN1OC2(CC(C3CCCc4ccccc43)Oc3ccc(-c4cccc(Cl)c4)cc32)N=C1N (stereo not shown) [Compound 239]
25,5000 to 10000,CN1OC2(CC(C3CCCc4ccccc43)Oc3ccc(-c4cc(F)cc(Cl)c4)cc32)N=C1N (stereo not shown) [Compound 240]
26,100 to 500,CN1C(=O)C2(C[C@H](C3CCOC(C)(C)C3)Oc3ccc(-c4cccc(F)c4)cc32)N=C1N (stereo partly shown) [Compound 241]
27,1000 to 5000,CN1OC2(CC3(CCCc4ccccc4C3)Oc3ccc(-c4cc(F)cc(C(F)(F)F)c4)cc32)N=C1N (stereo not shown) [Compound 242]
